According to patent US12102616B2, “Psilocin mucate” (LOBE SCIENCES LTD., priority 2022, dated 2024):
“And” between values parts separate entries of the source, which are not always exact repeats. Identical values can stand only once. “Also recorded” adds a separate entry of the source. Like-named read-outs stand apart in the source and are kept apart here.

Tests used:
Swiss Albino Mice = experiment: 28-day oral (gavage) toxicity study with 14-day recovery
[1] = Phase one single-dose pharmacokinetic study of capsules containing psilocin mucic acid conjugate (plasma psilocin)
healthy subjects = experiment: Mood assessment, MMSE test and adverse events in the phase one study
[2] = Stability studies on psilocin mucate capsule over a 12 month period; assay type: physicochemical; conditions: for Appearance POL-0018, Product / Assay TM-22-0392 (% Label Claim) / Total Impurities / Water Content by cKF TM-22-0012, Mean (2) / Water Content by cKF TM-22-0012, Prep 1 and 2 / Impurities TM-22-0392 (individual impurities): capsules
Method: Additional stability studies were performed on psilocin mutate (also known as psilocin mucic acid salt or conjugate or psilocin galactaric acid salt or conjugate) capsule over a 12 month period.
Appearance was evaluated by viewing of the sample on a watchglass over a black and white background.
Assay conditions for Test/Method TM-022-0392 assessing stability and impurities were as follows: • Mobile phase: MPA: 945 mL water, 5 mL H3PO4, pH to 5.7 with NaOH; MPB: Acetonitrile • Diluent: 80:20 Water:MeOH • Standard: 0.4 mg/mL Psilocin Mucic RS in Diluent • Sample: 0.4 mg/mL Psilocin Mucic API in Diluent • HPLC Conditions are depicted in Table 3.
• System suit: RSD NMT 2.0% (5 injections), Tailing NMT 2.0, Plate count NLT 10000
Calculations were against a bracketing external standard.
Identity of psilocin mucate was verified by ultraviolet (UV) assessment, wherein the UV spectrum of the main peak in the standard matched the UV spectrum of the main peak in the sample and by retention time wherein the retention time ratio was 0.98-1.02.

[3] = Usona's investigator's brochure; cited from earlier work
[4] = cited from earlier work; for AUC / Tmax / Cmax: psilocin
[5] = 2, 10 and 20 mg/kg bw/day oral, 28 days
[6] = females G4R vs G1R, considered not related
[7] = males G4R vs G1R, considered not related
[8] = plasma psilocin, 2 mg p.o. PM fasted
[9] = single oral dose equivalent to 2 mg psilocin
[10] = 0.224 mg/kg p.o. PY fasted by Hasler

CN(C)CCc1c[nH]c2cccc(O)c12.O=C(O)[C@@H](O)[C@H](O)[C@H](O)[C@@H](O)C(=O)O [psilocin mucate]
Functional observation battery (Swiss Albino Mice; [5]): No treatment related effects were observed
Mortality and morbidity check (Swiss Albino Mice; [5]): No mortality or morbidity was observed at any dose level
effects on general health, body weight, feed consumption, clinical pathology, gross pathology and histopathology (Swiss Albino Mice; 28 consecutive days, both sexes): no psilocin mucate related effects
Histopathology, overall (Swiss Albino Mice; G1 and G4 main group organs/tissues): no psilocin mucate related histopathological changes
histopathological lesions (background findings) (Swiss Albino Mice; G4 female, considered toxicologically irrelevant): single incidence of cortical cyst (unilateral) in kidneys; also recorded: presence of luteal cyst (unilateral) in ovaries
AChE (Swiss Albino Mice; G4 male and G3 female animals vs vehicle control, considered non-psilocin mucate related): statistically significant increase
body weight gain (Swiss Albino Mice; G4 males (20 mg/kg bw/day), day 1-8, vs control, not considered adverse): statistically significant decrease
net body weight gain (day 1 to day 43) (Swiss Albino Mice; G4 recovery females vs control, not due to treatment): statistically significant increase
foot splay measurement (Swiss Albino Mice; G4 recovery group females (20 mg/kg bw/day), last day of recovery, vs control, considered random biological variation): statistically significant increase
Gross pathology (Swiss Albino Mice; all groups, both sexes): No gross changes were observed
Clinical chemistry parameters, overall (Swiss Albino Mice; both sexes): No psilocin mucate related changes were observed
Hematology parameters, overall (Swiss Albino Mice; both sexes): No psilocin mucate related changes were observed
Coagulation parameters (Swiss Albino Mice; both sexes, main and recovery group): No statistically significant changes were observed
total bile acids (Swiss Albino Mice; females G3 and G4 vs G1, considered not related): statistically significant increase
aspartate aminotransferase and inorganic phosphorous (Swiss Albino Mice; [6]): decrease
creatinine, total protein, albumin and calcium (Swiss Albino Mice; [6]): increase
mean corpuscular hemoglobin (Swiss Albino Mice; [6]): increase
relative adrenals and brain weight (Swiss Albino Mice; [6]): decrease
absolute and relative thymus weight (Swiss Albino Mice; females G4 vs G1, considered not related): statistically significant increase
white blood cells and platelets (Swiss Albino Mice; females G4 vs vehicle control, considered not related): statistically significant increase
Ophthalmological examination (Swiss Albino Mice; main and recovery group animals): No ocular abnormalities were observed
relative eosinophil count (Swiss Albino Mice; males G2 and G4 vs vehicle control G1, considered not related): statistically significant decrease
chloride (Swiss Albino Mice; males G3 vs G1, considered not related): decrease
absolute and relative lungs weight and absolute prostate with seminal vesicles and coagulating gland weight (Swiss Albino Mice; [7]): statistically significant decrease
red blood cells and hemoglobin (Swiss Albino Mice; [7]): statistically significant increase
reticulocytes (Swiss Albino Mice; [7]): decrease
inorganic phosphorous (Swiss Albino Mice; males G4 vs vehicle control, considered not related): statistically significant increase
feed consumption (Swiss Albino Mice; males, G4 recovery group, day 29-36, vs control, considered incidental): statistically significant increase
Acetyl cholinesterase (AChE) level, overall (Swiss Albino Mice; mouse, in vivo): No psilocin mucate related changes were observed
NOAEL translated to a dose for an average person of 70 kg (Swiss Albino Mice; mouse, in vivo): 1,400 mg
Urinalysis parameters, overall (Swiss Albino Mice; mouse, in vivo): No psilocin mucate related changes were observed
NOAEL (Swiss Albino Mice; oral gavage, 28 consecutive days): 20 mg/kg bw/day
urine pH (Swiss Albino Mice; recovery female group (G4R) vs vehicle control recovery group, considered not related): statistically significant decrease
Clinical signs and detailed clinical signs observation (Swiss Albino Mice; treatment and recovery period): No clinical signs of toxicity were observed
food effect upon oral administration ([1]; from comparison with published psilocybin studies): no food effect
Cmax as compared to an equal amount of psilocin generated by the metabolism of psilocybin ([1]; oral): higher Cmax
decrease in Tmax as compared to an equivalent formulation of psilocybin ([1]; oral): ≥ 2 fold
delivered concentrations of psilocin compared with intravenous psilocybin ([1]; oral formulation): equivalent to intravenous doses of psilocybin
patient-to-patient variability as compared to psilocybin treatment ([1]; oral formulation): decreased patient-to-patient variability
AUC [1, 8]: 11.189 μG H/L
Tmax [1, 8]: 0.75 h
Cmax ([1]; plasma psilocin, 2 mg p.o. PM fasted, psilocin dose 2 mg, 0.026 mg/kg p.o.): 0.00366 µg/mL
time until psilocin is essentially eliminated from circulation ([1]; single oral capsule, 2 mg psilocin equivalent): less than 12 hours
FEELING STATUS (healthy subjects; individual subjects 01-10, single oral capsule, 2 mg psilocin equivalent, assessed by psychiatrist): Feel little beet happier, better; also recorded: Feel calm, less thoughts, happier; also recorded: Euphoric, better mood, it helps with; also recorded: Euphories, better mood, sleepy, feel; also recorded: Sleepy, better thoughts, less worried; also recorded: Did not feel change in mood but feeling; also recorded: More relaxed, want to drink sweet; also recorded: Better mood, feels hyper sexual; also recorded: Felt high mood, now they feel in good; also recorded: Less anxious, better mood, increase
MMSE (healthy subjects; individual subjects 01-10, single oral capsule, 2 mg psilocin equivalent, hallucinogenic substance expected to lower score below 25): 30 (3×) and 28 (3×) and 27 (2×) and 29 (2×)
adverse events: dizziness (healthy subjects; [9]): one subject reported slight and transient dizziness
serious adverse effects (healthy subjects; [9]): no serious adverse effects were reported
subjects with no hallucinogenic effect (healthy subjects; [9]): 9 of the 10
stable for (duration of stability) [2]: at least 12 months
Appearance POL-0018, Product ([2]; 1 Month): Conforms
Assay TM-22-0392 (% Label Claim) ([2]; 1 Month): 98.8%
Total Impurities ([2]; 1 Month): 0.05%
Water Content by cKF TM-22-0012, Mean (2) ([2]; 1 Month): 0.9 % w/w
Water Content by cKF TM-22-0012, Prep 1 and 2 ([2]; 1 Month): 0.9 % w/w and 0.8 % w/w
Impurities TM-22-0392 (individual impurities) ([2]; 1 Month, impurity at RRT 1.11): RRT 1.11/0.05%
Appearance POL-0018, Product ([2]; 3 Months): Conforms
Assay TM-22-0392 (% Label Claim) ([2]; 3 Months): 101.1%
Total Impurities ([2]; 3 Months): <0.05%
Water Content by cKF TM-22-0012, Mean (2) ([2]; 3 Months): 1.6 % w/w
Water Content by cKF TM-22-0012, Prep 1 and 2 ([2]; 3 Months): 2.0 % w/w and 1.1 % w/w
Impurities TM-22-0392 (individual impurities) ([2]; 3 Months, all impurities): All < 0.05%
Appearance POL-0018, Product ([2]; 5 Months): Conforms
Assay TM-22-0392 (% Label Claim) ([2]; 5 Months): 103.2%
Total Impurities ([2]; 5 Months): <0.05%
Water Content by cKF TM-22-0012, Mean (2) ([2]; 5 Months): 1.3 % w/w
Water Content by cKF TM-22-0012, Prep 1 and 2 ([2]; 5 Months): 1.2 % w/w and 1.3 % w/w
Impurities TM-22-0392 (individual impurities) ([2]; 5 Months, all impurities): All < 0.05%
Appearance POL-0018, Product ([2]; 6 Months): Conforms
Assay TM-22-0392 (% Label Claim) ([2]; 6 Months): 98.8%
Total Impurities ([2]; 6 Months): <0.05%
Water Content by cKF TM-22-0012, Mean (2) ([2]; 6 Months): 1.4 % w/w
Water Content by cKF TM-22-0012, Prep 1 and 2 ([2]; 6 Months): 1.4 % w/w
Impurities TM-22-0392 (individual impurities) ([2]; 6 Months, all impurities): All < 0.05%
Appearance POL-0018, Product ([2]; 12 Months): Conforms
Assay TM-22-0392 (% Label Claim) ([2]; 12 Months): 98.4%
Total Impurities ([2]; 12 Months): <0.05%
Water Content by cKF TM-22-0012, Mean (2) ([2]; 12 Months): 1.3 % w/w
Water Content by cKF TM-22-0012, Prep 1 and 2 ([2]; 12 Months): 1.2 % w/w and 1.3 % w/w
Impurities TM-22-0392 (individual impurities) ([2]; 12 Months, all impurities): All < 0.05%
Total Impurities ([2]; Initial): 0.08%
Water Content by cKF TM-22-0012, Mean (2) ([2]; Initial): 1.2 % w/w
Impurities TM-22-0392 (individual impurities) ([2]; Initial, impurity at RRT 1.12): RRT 1.12/0.08%
Assay TM-22-0392 (% Label Claim) ([2]; Initial, specification 90.0-110.0%): 98.8%
Water Content by cKF TM-22-0012, Prep 1 and 2 ([2]; Initial, specification NMT 10.0%): 1.1 % w/w and 1.2 % w/w
Appearance POL-0018, Product ([2]; Initial, specification white to light brown powder partially filling white opaque capsules): Conforms

CN(C)CCc1c[nH]c2cccc(OP(=O)(O)O)c12 [psilocybin]
lethal dose 50% (LD50) [3]: 285 mg/kg
AUC [4, 10]: 32.71 μG H/L
Tmax [4, 10]: 1.75 h
Cmax ([4]; 0.224 mg/kg p.o. PY fasted by Hasler, psilocin dose 0.161 mg/kg p.o.): 0.0082 µg/mL
AUC ([4]; 1 mg i.v. PY by Hasler): 4 μG H/L
Tmax ([4]; 1 mg i.v. PY by Hasler): 0.0317 h
Cmax ([4]; 1 mg i.v. PY by Hasler, psilocin dose 0.718 mg, 0.01 mg/kg i.v.): 0.0129 µg/mL
AUC ([4]; 25 mg p.o. PY fasted by Holze): 83 μG H/L
Tmax ([4]; 25 mg p.o. PY fasted by Holze): 1.9 h
Cmax ([4]; 25 mg p.o. PY fasted by Holze, psilocin dose 17.95 mg, 0.256 mg/kg): 0.017 µg/mL
bioavailability, generally reported ([4]; varies from paper to paper): 50-80%
